In patent US20140377379A1, “METHOD FOR PROGNOSING THE AGE-AT-ONSET OF HUNTINGTON'S DISEASE” (Institut National de la Sante et de la Recherche Medicale …, priority 2010, published 2014):
Entries after “also recorded” stand apart in the source; their conditions may differ.

Experiments:
UCP4 mRNA = test: Quantitative RT-PCR of UCP4 mRNA in striatal cells; type: cell-based, mouse; conditions: for UCP4 mRNA levels: 109Q/109Q cells, qRT-PCR
Procedure: (§1) Cell death assays for HdhQ111 mouse striatal cells expressing full-length htt with either wild-type (7Q/7Q) or mutant (109Q/109Q) polyglutamines were performed as previously described (Arango et al. 2006 Neurosci 26:4649-59). jetPEI was used for transfection with cDNA and jetSI-ENDO for siRNA assays as indicated by the manufacturer (PolyPlus Transfection). siRNA oligos were obtained from Clontech (β-catenin) and QIAGEN (SIRT1, SIRT2, SIRT3, UCP2 and UCP4). Mixes of 3-4 different siRNA sequences per gene (25 or 33 nM) were systematically tested for modulation of cell survival and siRNA target gene expression, followed by the evaluation of individual siRNA sequences at optimal concentration (25-100 nM). […] Cells were subjected to DAPI staining and cell death was scored 48 hours after cell transfection by counting picnotic versus normal nuclei in DAPI- and JetSI-ENDO-positive cells. Cytoplasmic and nuclear proteins were extracted as previously described (Arango et al. 2006 Neurosci 26:4649-59), separated by SDS-PAGE and analyzed by Western blotting using the following primary antibodies: Mouse anti-SIRT1 (Upstate, 1:1000), mouse anti-SIRT2 (Santa Cruz, 1:100), rabbit anti-SIRT-3 (Abgent, 1:100), rabbit-anti-β-catenin (Cell Signaling, 1:5000), mouse anti-FoxO3a (Cell Signaling, 1:1000), goat-anti-UCP2 (Santa Cruz, dilution), rabbit-anti-UCP4 (Abcam, 1:25), mouse anti-actin (Invitrogen, 1:2000), anti-htt (4C8, Chemicon, 1:5000). […] Proteins were detected using ECL+ and evaluated by densitometry. Quantitative Real-Time PCR experiments were performed as described in the Supporting Information/Materials and Methods. […]
Quantitative RT-PCR was performed on RNA extracted from 109Q/109Q mouse striatal cells, transfected with the appropriate siRNAs, to assess gene silencing efficiency. […]

109Q/109Q striatal cells = test: Cell death assay in mutant htt striatal cells from HdhQ111 mice; type: cell-based, mouse
Procedure: Cell death assays for HdhQ111 mouse striatal cells expressing full-length htt with either wild-type (7Q/7Q) or mutant (109Q/109Q) polyglutamines were performed as previously described (Arango et al. 2006 Neurosci 26:4649-59). jetPEI was used for transfection with cDNA and jetSI-ENDO for siRNA assays as indicated by the manufacturer (PolyPlus Transfection). siRNA oligos were obtained from Clontech (β-catenin) and QIAGEN (SIRT1, SIRT2, SIRT3, UCP2 and UCP4). Mixes of 3-4 different siRNA sequences per gene (25 or 33 nM) were systematically tested for modulation of cell survival and siRNA target gene expression, followed by the evaluation of individual siRNA sequences at optimal concentration (25-100 nM). […] The siRNA sequences shown in figures are as it follows: β-catenin siRNA, 5′-[…]-3′ (100 nM) (SEQ ID NO:41); FoxO3a siRNA 5′-[…]-3′ (SEQ ID NO:42) (100 nM); SIRT1 siRNA, 5′-[…]-3′ (SEQ ID NO:43) (25 nM); SIRT2 siRNA 5′-[…]-3′ (SEQ ID NO:44) (25 nM); SIRT3 siRNA, 5′-[…]-3′ (SEQ ID NO:45) (25 nM); UCP2 siRNA, 5′-[…]-3′ (SEQ ID NO:46) (33 nM), and UCP4 siRNA sequences 5′-[…]-3′ (SEQ ID NO:47) (33 nM). The constructs encoding an active variant of SIRT1 (2 kb cDNA) lacking an internal segment in the N-terminus and full length FoxO3a were pcDNA3.1-sirt1-Flag and pcDNA3.1-FoxO3a-HA, respectively. Cells were subjected to DAPI staining and cell death was scored 48 hours after cell transfection by counting picnotic versus normal nuclei in DAPI- and JetSI-ENDO-positive cells. Cytoplasmic and nuclear proteins were extracted as previously described (Arango et al. 2006 Neurosci 26:4649-59), separated by SDS-PAGE and analyzed by Western blotting using the following primary antibodies: Mouse anti-SIRT1 (Upstate, 1:1000), mouse anti-SIRT2 (Santa Cruz, 1:100), rabbit anti-SIRT-3 (Abgent, 1:100), rabbit-anti-β-catenin (Cell Signaling, 1:5000), mouse anti-FoxO3a (Cell Signaling, 1:1000), goat-anti-UCP2 (Santa Cruz, dilution), rabbit-anti-UCP4 (Abcam, 1:25), mouse anti-actin (Invitrogen, 1:2000), anti-htt (4C8, Chemicon, 1:5000). Secondary antibodies were goat-anti-mouse IgG HRP-conjugated and goat-anti-rabbit IgG HRP-conjugated (Biorad). Proteins were detected using ECL+ and evaluated by densitometry. Quantitative Real-Time PCR experiments were performed as described in the Supporting Information/Materials and Methods. Chemicals were either purchased from Sigma (Resveratrol) and Calbiochem (B10, LiCl).

mutant htt = test: Western blot of mutant htt in 109Q/109Q cells; type: cell-based, mouse
Procedure: as §1, with “UCP4).” for “UCP4). Mixes of 3-4 different siRNA sequences per gene (25 or 33 nM) were systematically tested for modulation of cell survival and siRNA target gene expression, followed by the evaluation of individual siRNA sequences at optimal concentration (25-100 nM).”

β-catenin = test: Western blot of β-catenin in 109Q/109Q cells; type: cell-based, mouse
Procedure: as §1, with “UCP4).” for “UCP4). Mixes of 3-4 different siRNA sequences per gene (25 or 33 nM) were systematically tested for modulation of cell survival and siRNA target gene expression, followed by the evaluation of individual siRNA sequences at optimal concentration (25-100 nM).”

7Q/7Q striatal cells = test: Cell death assay in normal htt striatal cells; type: cell-based, mouse; conditions: siRNA
Procedure: as §1, with “UCP4).” for “UCP4). Mixes of 3-4 different siRNA sequences per gene (25 or 33 nM) were systematically tested for modulation of cell survival and siRNA target gene expression, followed by the evaluation of individual siRNA sequences at optimal concentration (25-100 nM).”

[1] = system: reactive oxygen species (ROS) levels in striatal cells; test: ROS levels in striatal cells; type: cell-based, mouse
UCP2 mRNA = test: Quantitative RT-PCR of UCP2 mRNA in striatal cells; type: cell-based, mouse
Procedure: as §1, with “UCP4).” for “UCP4). Mixes of 3-4 different siRNA sequences per gene (25 or 33 nM) were systematically tested for modulation of cell survival and siRNA target gene expression, followed by the evaluation of individual siRNA sequences at optimal concentration (25-100 nM).”

[2] = system: 128Q nematodes (expanded polyQ in touch receptor neurons); test: Touch test (response to light touch at the tail) in 128Q nematodes; type: in vivo, C. elegans
Procedure: (§2) The wild-type strain of C. elegans used was Bristol N2. Standard methods of culturing and handling worms were used. All strains were scored at 20° C. Touch tests, scoring of PLM cell processes, drug response assays and quantitative Real-Time PCR were performed as previously described (Parker et al. 2005 Nat Genet. 37:349-350). Western analysis was performed using standard protocols and htt fusion proteins detected with the GFP antibody ab6556 (Abcam). Mutations and transgenes used in this study were: aak-2(ok524), bar-1(ga80), cfz-2(ok 1201), cst-1(tm1900), ctl-2(ok1137), cwn-1(ok546), cwn-2(ok895), daf-2(e1370), daf-16(mgD150), dhc-1(or195), dnc-1(or 404), egl-20(n585), ftt-2(n4426), geln3[sir-2.1(+)], igls1[mec-3::htt57Q128::CFP;mec-7::YFP;lin-15(+)], igls245[mec-3::htt57Q19::CFP; mec-7::YFP; lin-15(+)]. lin-17(n671), lin-44(n1792), mig-1(e1787), pop-1(q624), rrf-3(pk1426), sir-2.1(ok434), sod-3(gk235) and ucp-4(ok 195). […]
(§3) Touch tests involved scoring for the response to light touch at the tail by using a fine hair. […] The responses were recorded for every animal such that, for example, 3 responses out of 10 at the tail is given as 30% responsiveness, and the mean values for responsiveness were retained for comparison of nematode groups.

[3] = system: 19Q nematodes (normal polyQ); test: Touch test in 19Q control nematodes; type: in vivo, C. elegans
Procedure: as §2, §3

[4] = system: PLM cells of 128Q animals; test: Scoring of PLM cell processes (axonal swelling); type: in vivo, C. elegans; conditions: versus DMSO controls
Procedure: as §2, with “195). All strains were obtained from the C. elegans Genetics Center (University of Minnesota, Minneapolis) except for cst-1(tm1900) which was from the National Bioresource Project for the Nematode (Tokyo, Japan). For strain construction with polyQ transgenes, mutants were verified by visible phenotypes, PCR analysis for deletion mutants, sequencing for point mutations or a combination thereof.” for “195).”

[5] = siRNA 25-100 nM, cell death scored 48 hours after transfection, versus untreated

For “UCP4 siRNA: siRNA 5′-GCCTATAGTATGTGCTTAATT-3′ (SEQ ID NO:47) (33 nM) (listed as DNA, chemistry not given here)”, the “UCP4 mRNA levels” value (UCP4 mRNA) was “decreased UCP4 mRNA levels”, the “survival of 109Q/109Q cells” value (109Q/109Q striatal cells; [5]) was “increased the survival of 109Q/109Q cells” and the mutant htt expression (mutant htt) was “unchanged; also recorded: no change in htt expression”.
With “β-catenin siRNA: siRNA 5′-GGCTTTTCCCAGTCCTTCATT-3′ (100 nM) (SEQ ID NO:41) (listed as DNA, chemistry not given here)” the UCP4 expression (UCP4 mRNA; 7Q/7Q cells) was “No effect”, the “UCP4 mRNA levels” value (UCP4 mRNA) was “upregulated” and the β-catenin expression (β-catenin) was “β-catenin was reduced”. For the same compound, the “survival of 109Q/109Q cells” value (109Q/109Q striatal cells; [5]) was “reduced the survival of mutant htt striatal cells; also recorded: decreased the survival of 109Q/109Q cells”, the “survival of normal htt (7Q/7Q) cells” value (7Q/7Q striatal cells) was “no effects in normal htt cells” and the ROS levels ([1]; mutant htt (109Q/109Q) striatal cells, versus untreated) was “increased reactive oxygen species (ROS) levels in mutant htt striatal cells”. For the same compound, the ROS levels ([1]; normal htt (7Q/7Q) cells) was “no effects in normal htt cells”, the mutant htt expression (mutant htt) was “unchanged; also recorded: no change in htt expression” and the UCP2 expression (UCP2 mRNA; 7Q/7Q cells) was “No effect”. For the same compound, the “UCP2 mRNA levels” value (UCP2 mRNA; 109Q/109Q cells, qRT-PCR) was “downregulated; also recorded: decreased UCP2 mRNA levels”.
For O=C1Nc2cc(Br)ccc2/C1=C1/Nc2ccccc2/C1=N\O [BIO, 6-bromoindirubin-3′-oxime], the “survival effect of BIO combined with β-catenin siRNA” value (109Q/109Q striatal cells; BIO 0.5 μM + β-catenin siRNA, 109Q/109Q cells) was “lost by β-catenin siRNA”, the “survival of 109Q/109Q cells” value (109Q/109Q striatal cells; BIO 0.5 μM, cell death induced by serum deprivation, versus DMSO controls) was “enhanced the survival of 109Q/109Q cells” and the “neuronal dysfunction / expanded polyQ neurotoxicity (loss of response to touch)” value ([2]; 128Q nematodes, versus DMSO or untreated […]Q controls) was “rescues expanded polyQ neurotoxicity; also recorded: reduced neuronal dysfunction in 1280 animals”. The “BIO rescuing activity in 128Q animals mutant for FoxO network genes” value ([2]; 128Q, mutants for daf-16, sir-2.1, bar-1 and ucp-4) was “lost and in a bar-1 dependent manner and no effect in mutants for sir-2.1, daf-16 and ucp-4”, the “effect on normal polyQ (19Q) controls, touch response” value [3] was “no effect on 19Q controls” and the “axonal swelling (AxSw)” value [4] was “reduced AxSw in PLM cells of 128Q animals; also recorded: reduced axonal swelling”.
[Cl-].[Li+] [Lithium chloride] was tested, and the “effect on normal polyQ (19Q) controls, touch response” value [3] was “no effects on 19Q controls”.
